According to US5807983A, “GNRH antagonist betides” (The Salk Institute for Biological Studies, priority 1996, dated 1998):

Columns and labels:
circulating LH = test: suppression of circulating LH concentrations, duration of bioactivity; type: in vivo; conditions: dose of 50 micrograms per rat; for duration of bioactivity (LH suppression): testing as in Example 1
[1] = hydrophilicity by RP-HPLC retention; type: physicochemical; conditions: for hydrophilicity compared to Acyline: RP-HPLC
[2] = examination of injected rats for tolerance and gelling at the point of injection; type: in vivo, rat; conditions: after injection in the anti-ovulation test
Protocol: (§1) The betide is assayed in vivo to determine its effectiveness to prevent ovulation in female rats. Inthis test, a specified number of mature female Sprague-Dawley rats, e.g. five to ten, each having a body weight from 225 to 250 grams, are injected with a specified microgram dosage of the betide in bacteriostatic water at about noon on the day of proestrus. Proestrus is the […]. A separate female rat group is used as a control to which the peptide is not administered. Each of the control female rats ovulates on the evening of proestrus; the number of the rats treated which ovulate is recorded.

[3] = tested on: ovulation in mature female Sprague-Dawley rats; test: standard in vivo rat anti-ovulation test; conditions: injected in bacteriostatic water at about noon on the day of proestrus
Protocol: as §1

| Compound | hydrophilicity compared to Acyline [1] | anti-ovulatory activity: rats ovulating out of rats treated ([3]; dosage 2.5 μg) | other results |
| --- | --- | --- | --- |
| CC(=O)Nc1ccc(C[C@H](NC(=O)[C@H](CO)NC(=O)C(NC(=O)c2cccnc2)NC(=O)[C@@H](Cc2ccc(Cl)cc2)NC(=O)[C@@H](Cc2ccc3ccccc3c2)NC(C)=O)C(=O)N[C@H](Cc2ccc(NC(C)=O)cc2)C(=O)N[C@@H](CC(C)C)C(=O)N[C@@H](CCCCNC(C)C)C(=O)N2CCC[C@H]2C(=O)N[C@H](C)C(N)=O)cc1 (single isomer, unassigned) [Betide No. 1, Ac-D-2Nal-(4Cl)D-Phe-γ-(3-pyridyl)amidoGly-Ser-Aph(acetyl)-D-Aph(acetyl)-Leu-Lys(isopropyl)-Pro-D-Ala-NH2] | more hydrophilic |  | circulating LH concentrations relative to control levels (circulating LH; for 48 hours or more): less than 25 % of control levels; duration of bioactivity (LH suppression) (circulating LH): ≥ 48 h; RP-HPLC retention (hydrophilicity) ([1]; gradient 40% to 75% Buffer B over 30 minutes, Buffer A TEAP pH 7.3, Buffer B 60% CH3CN and 40% Buffer A): 23.5 min; gelling at the point of injection [2]: no significant gelling; tolerance in treated rats [2]: very well tolerated |
| CC(=O)Nc1ccc(C[C@H](NC(=O)[C@H](CO)NC(=O)C(NC(=O)[C@@H](Cc2ccc(Cl)cc2)NC(=O)[C@@H](Cc2ccc3ccccc3c2)NC(C)=O)N(C)C(=O)c2cccnc2)C(=O)N[C@H](Cc2ccc(NC(C)=O)cc2)C(=O)N[C@@H](CC(C)C)C(=O)N[C@@H](CCCCNC(C)C)C(=O)N2CCC[C@H]2C(=O)N[C@H](C)C(N)=O)cc1 (single isomer, unassigned) [Betide No. 1B first isomer, Ac-β-D-2Nal-D-Cpa-γ-(3-pyridyl)methylD/L-amidoGly-Ser-Aph(acetyl)-D-Aph(acetyl)-Leu-Lys(isopropyl)-Pro-D-Ala-NH2] | more hydrophilic than Acyline | only the second isomer was bioactive |  |
| CC(=O)Nc1ccc(C[C@H](NC(=O)[C@H](CO)NC(=O)C(NC(=O)[C@@H](Cc2ccc(Cl)cc2)NC(=O)[C@@H](Cc2ccc3ccccc3c2)NC(C)=O)N(C)C(=O)c2cccnc2)C(=O)N[C@H](Cc2ccc(NC(C)=O)cc2)C(=O)N[C@@H](CC(C)C)C(=O)N[C@@H](CCCCNC(C)C)C(=O)N2CCC[C@H]2C(=O)N[C@H](C)C(N)=O)cc1 (single isomer, unassigned) [Betide No. 1B second isomer, Ac-β-D-2Nal-D-Cpa-γ-(3-pyridyl)methylD/L-amidoGly-Ser-Aph(acetyl)-D-Aph(acetyl)-Leu-Lys(isopropyl)-Pro-D-Ala-NH2] | more hydrophilic than Acyline | 3 out of 8 |  |
| CC(=O)Nc1ccc(C[C@H](NC(=O)[C@H](CO)NC(=O)[C@@H](Cc2cccnc2)NC(=O)[C@@H](Cc2ccc(Cl)cc2)NC(=O)C(NC(C)=O)NC(=O)c2ccc3ccccc3c2)C(=O)N[C@H](Cc2ccc(NC(C)=O)cc2)C(=O)N[C@@H](CC(C)C)C(=O)N[C@@H](CCCCNC(C)C)C(=O)N2CCC[C@H]2C(=O)N[C@H](C)C(N)=O)cc1 (single isomer, unassigned) [Betide No. 3, Ac-γ-(2-naphthoyl)amidoGly-4Cl-D-Phe-D-3Pal-Ser-Aph(acetyl)-D-Aph(acetyl)-Leu-Lys(isopropyl)-Pro-D-Ala-NH2] |  | 0/8 | duration of bioactivity (LH suppression) (circulating LH): ≥ 48 h; anti-ovulatory activity: rats ovulating out of rats treated ([3]; dosage 1 μg): 2 out of 7 |
| Ac-2Nal-4Cl-D-Phe-D-3Pal-Ser-Aph(acetyl)-D-Aph(acetyl)-Leu-Lys(isopropyl)- Pro-D/L-Agl(methyl,For)-NH2 [Betide No. 8C] | more hydrophilic than Acyline | 0/8 | anti-ovulatory activity: rats ovulating out of rats treated ([3]; dosage 1 μg): 1 out of 8 |
| Ac-D-2Nal-(4Cl)D-Phe-D-3Pal-Ser-Aph(acetyl)-D-Aph(acetyl)-Leu-D/L-Agl(acetyl-β-Ala)-Pro-D-Ala-NH2 [Betide No. 7] | more hydrophilic than Acyline | 3 out of 9 | anti-ovulatory activity: rats ovulating out of rats treated ([3]; dosage 5 μg): 0 out of 11 |
| Ac-D-2Nal-(4Cl)D-Phe-D-3Pal-Ser-Aph(acetyl)-D-Aph(acetyl)-Leu-Lys(isopropyl)-Pro-D/L-Agl-NH2 [Betide No. 8A] | more hydrophilic than Acyline | 0 out of 8 |  |
